Consider 14 molecules from US20080124310A1, “Bead based receptor biology” (priority 2006, published 2008).

Entries after “also recorded” stand apart in the source; their conditions may differ.

The subject of one assay is RAW 264.7 macrophages. As to the kind of experiment: Phagocytic receptor assay: engulfment of IgG or ligand coated particles by RAW macrophages (foam cell model), confocal. The settings on record: for engulfment / accumulation of IgG or ligand coated particles: RAW macrophages, confocal. In kind it is cell-based, murine. From the text: FIG. 25, panels A and B, illustrate respectfully a method for measurement of phagocytic receptors and a method for measuring transfection or delivery of nucleic acids and simultaneous measurement of particle engulfment using a single cell multi label confocal microscope experiment. A direct or surrogate measurement of receptor function or receptor pathway activity must be made in order establish the role of potential therapeutic target proteins in receptor function. IgG, complement, low density lipoprotein (LDL), oxidatively modified LDL (OX-LDL). Acetyl-LDL, apolipoproteins, lipoproteins, lipopolysaccharide (LPS), scavenger and other receptor functions can be measured by the accumulation of particles. The particles may themselves be comprised in part of fluorescent materials or can be directly stained with fluorescent or other colored materials or can be bound by proteins that directly or indirectly permit the attachment of fluorescent, chemiluminescent or other reporter molecules. The beads may be stained in live cells or cells fixed with formalin or paraformaldehyde or organic solvents such as alcohol and acids or by other means. The beads can be stained both before or after internalization with or without the permeabilization of the cells by detergents or organic solvents. The beads may be cells that can be lysed and imaged directly. The cells may be counter stained for the presence of specific proteins using antibodies or may express fluorescent protein constructs or contain fluorescent silencing RNA or DNA constructs or biopolymer modulating agents or drugs (FIG. 25).
We created a foam cell model and quantitative confocal assays for micro particle engulfment by macrophages. The engulfment of particles by macrophages and the generation of free radicals by leukocytes are the key physiological actions that lead to the generation of foam cells that are the center of atherosclerotic plaques. We made a cellular model system of foam cells or activated leukocytes and examine the effects of moderate levels of alcohol over time on the accumulation of particles and generation of free radicals at the site of particle accumulation compared to statins and propranolol. The model systems will consist of RAW macrophages that engulf hydrophobic polystyrene microparticles with or without coating by ligands or mixtures of ligands such as those found in cellular growth media, or free fluorescently labeled DI-LDL, OX-LDL, Acetyl LDL or other. Live cell confocal microscopy was used to quantify the effects of ethanol, compared to lovastatin and propranolol, on particle engulfment.
External particles were stained green with secondary anti rabbit FITC and then cells were permeablized and all particles stained red with secondary anti rabbit CY3. Thus engulfed particles appear red while external particles appear yellow. Beads within the cells carrying only the red signal (engulfed) and not also the green signal {red+green=yellow} (outside) were quantified for accumulation assays using both total fluorescence in the green channel and by counting individual beads in three fields on three independent cover slips for each concentration.
RAW 264.7 macrophages were cultured in alpha MEM with 5% fetal calf serum as described. The effects of lovastatin on IgG and LDL coated micro-particle engulfment at 0, 50 nM, 100 nM, 500 nM, 1 mM and higher was tested. The accumulation of free DI-LDL was quantified directly by its red fluorescence. External particles were stained green with secondary anti rabbit FITC and then cells were permeablized and all particles stained red with secondary anti rabbit CY3. Thus engulfed particles appear red while external particles appear yellow.

In another assay the test system is human neutrophils. As to the kind of experiment: fMLP induced oxidative burst, cytochrome C reduction assay. The assay is classed as cell-based.
In the next assay the test system is PI3K pathway to PIP3. Description: PIP3 accumulation at site of IgG coated particles measured with AKT/PH-GFP. In kind it is cell-based, murine. The method, then:
FIG. 27 illustrates the use of PiP3 binding PH domains to screen atherosclerosis drugs in macrophages.
The PI3K pathway that converts PIP4, 5 bis-phosphate to PIP3, 4, 5, triphosphate, also called PIP3. PIP3 is measured by the Pleckstrin Homology (PH) domain of the protein kinase AKT, that has a high affinity for PIP3, fused to GFP (AKT/PH-GFP). The accumulation of phosphatidyl inositol triphosphate at the site of IgG coated particles was inhibited using wortamannin, and LY294002 dissolved into the cell experimental media.

For a further assay, the system named is RAW cells. As to the kind of experiment: Cellular cholesterol extraction, filipin staining. In kind it is cell-based, murine. Particulars: brief incubation. From the text:
Cholesterol levels were quantified by the esterase assay, oil red- and filipin-staining.

Assay [1] deals with sheep red blood cells phagocytosis. As to the kind of experiment: Phagocytosis of sheep red blood cells. Particulars: 15 to 30 minute incubation. In kind it is cell-based.
Assay [2] has as its system PLD/PAP-1 pathway (DAG production). Description: DAG production at site of particle engulfment measured with PKC/C2-GFP. In kind it is cell-based, murine. From the text:
FIG. 28 illustrates use of DAG binding domains to screen for atherosclerosis drugs in macrophages.

A further assay relates to PLC. The settings on record: PLC-delta PH domain. From the text:
The metabolic activation of the receptor pathway at the binding site of modified beads such as ligand coated particles may be detected, measured and quantified using green fluorescence protein (GFP) fused with binding domains specific to different biopolymers, or modified biopolymers or metabolites in including phosphorylations at the site of modified particle or bead or binding.

The conditions of assay [3]: in vivo; cited from earlier work.
The test system of the next assay is PLD pathway. Particulars: 500 micromolar; cited from earlier work.
For another assay, the system named is RAW macrophages. As to the kind of experiment: Biochemical measurement of protein levels in fractions of drug treated RAW macrophages. In kind it is cell-based, murine. The settings on record: FIG. 67 cytosol fractions. From the text: A now well established side effect of ethanol is to prevent heart attack. Thus the common effects of statins, propranolol, and ethanol must be closely linked to the central mechanism that is the most important pharmacological target of heart attack and thus atherosclerosis prevention. It remains possible that the preventative effect of statins results from their effect to inhibit particle engulfment and foam cell formation by macrophages leading to atherosclerotic plaques. We created a foam cell model and quantitative confocal assays for micro particle engulfment by macrophages. The engulfment of particles by macrophages and the generation of free radicals by leukocytes are the key physiological actions that lead to the generation of foam cells that are the center of atherosclerotic plaques. We have made a cellular model system of leukocytes or activated leukocytes or leukocytes treated over time to examine the effects drugs and biopolymer modification materials over time on the activation of receptors at the site of modified or ligand coated particles. The drugs used in this system to examine the kinetics of receptor function at modified particles may result in changes to the cell including changes in gene expression at the level of DNA transcription, RNA production, accumulation or post-transcription processing, mRNA production accumulation or expression all of which may also alter protein expression. We examined the use of these model systems with and without beads as a system to screen the effects of drugs that are known to prevent heart attack and stroke in model of leukocyte cells within atherosclerotic plaques. We observe that drugs that effect receptor associated signaling may also alter gene, RNA or ultimately protein expression in cells resulting in changes in protein levels. Proteins that change levels in response to a drug may be themselves drug target proteins.
The drugs used in the leukocyte model system to examine the kinetics of receptor function at modified particles may result in changes to the cell including changes in gene expression at the level of DNA transcription, RNA production, accumulation or post-transcription processing, mRNA production accumulation or expression all of which may also alter protein expression. We examined the use of these model systems with and without beads as a system to screen the effects of drugs that are known to effect receptor response at or near the cell surface or interior of the cells. We observe that drugs that effect receptor associated signaling may also alter gene, RNA or ultimately protein expression in cells resulting in changes in protein levels. Proteins that change levels in response to a drug may be themselves drug target proteins. […] The RAW leukocyte model foam cells system alone or in combination with the bead based biology system can be used to characterize the effects of receptor or cellular activation in terms of second messengers such as lipid and protein phosphorylation with respect to drug treatment or time in the cytosol of leukocytes (FIG. 67).

Setting [4] is: listed as Methyl-beta-cyclo-dextrin.
Setting [5] is: listed as methyl beta cyclo dextrin.

Regarding `CC(C)NCC(O)COc1ccc(CC(N)=O)cc1` (centres unmarked) [atenolol], the “engulfment / accumulation of IgG or ligand coated particles” value (from here on “engulfment / accumulation”) with RAW 264.7 macrophages was “do not inhibit particle engulfment”. The “fMLP induced oxidative burst (super oxide radicals)” value (“fMLP induced oxidative burst” below) with human neutrophils is listed as “not as effective as the PAP-1 inhibitor propranolol”.
Consider methyl-beta cyclodextrin [MBCD], for which the “engulfment / accumulation” value in the assay with RAW 264.7 macrophages was “no effect on particle engulfment”; in the assay with RAW 264.7 macrophages (setting [4]), “no effect on particle accumulation”; with RAW 264.7 macrophages (setting [5]) it was “little inhibitory effect”. Moreover, the “accumulation of PIP3 at the site of IgG coated particles” value (from here on “accumulation of PIP3”) in the assay with PI3K pathway to PIP3 was “did not prevent”. Moreover, the results for the “extraction of cellular cholesterol” value in the assay with RAW cells (setting [4]) and in the assay with RAW cells (setting [5]) were “highly effective cholesterol scavenger” and “effective to extract cholesterol”, respectively. Also, the “phagocytosis of sheep red blood cells” value in assay [1] was “no effect”.
`CCCC(=O)Nc1ccc(OCC(O)CNC(C)C)c(C(C)=O)c1` (centres unmarked) [acetbutolol]: in the assay on RAW 264.7 macrophages, the “engulfment / accumulation” value is recorded as “do not inhibit particle engulfment”. In addition, in the assay on human neutrophils, the “fMLP induced oxidative burst” value is reported as “not as effective as the PAP-1 inhibitor propranolol”.
Turning to `CCO` [ethanol], the “engulfment / accumulation” value in the assay on RAW 264.7 macrophages is “prevent particle accumulation”. For the same molecule, the “accumulation of PIP3” value with PI3K pathway to PIP3 is on record as “no side effect on the PI3K pathway to PIP3”. In assay [2], the “DAG production at the site of ligand coated bead binding” value (shortened to “DAG production at the site”) is “prohibit DAG production”. Also, the “PIP2 catalysis by PLC” value in the assay with PLC is “neither EtOH, HELSS or propranolol interfere with the catalytic action of PLC”. The “fMLP induced oxidative burst” value in the assay with human neutrophils is listed as “inhibited the fMLP induced oxidative burst in a dose dependant manner”.
As for `O=C1O/C(=C/Br)CCC1c1cccc2ccccc12` (centres unmarked) [HELSS], the “engulfment / accumulation” value in the assay on RAW 264.7 macrophages was “prevent particle accumulation”. Moreover, the “accumulation of PIP3” value in the assay with PI3K pathway to PIP3 is given as “no side effect on the PI3K pathway to PIP3”. In assay [2], the “DAG production at the site” value is reported as “prohibit DAG production; also recorded: inhibitory effect”. Further, in the assay with PLC, the “PIP2 catalysis by PLC” value is “neither EtOH, HELSS or propranolol interfere with the catalytic action of PLC”. The “fMLP induced oxidative burst” value with human neutrophils was “inhibited the fMLP induced oxidative burst in a dose dependant manner”.
As for `CC(C)(C)NCC(O)COc1cccc2c1CC(O)C(O)C2` (centres unmarked) [nadolol], in the assay on RAW 264.7 macrophages, the “engulfment / accumulation” value is listed as “do not inhibit particle engulfment”. The “fMLP induced oxidative burst” value in the assay with human neutrophils is given as “not as effective as the PAP-1 inhibitor propranolol”.
In the same order, the values of `CC(C)NCC(O)COc1cccc2[nH]ccc12` (centres unmarked) [pindolol] are “do not inhibit particle engulfment” and “not as effective as the PAP-1 inhibitor propranolol”.
On to `CC(C)NCC(O)COc1cccc2ccccc12` (centres unmarked) [propranolol], for which the “engulfment / accumulation” value with RAW 264.7 macrophages is reported as “prevent particle accumulation”; in the assay with RAW 264.7 macrophages (listed as Propranolol) it was “had the largest effect in preventing the engulfment”. Further, in the assay with PI3K pathway to PIP3, the “accumulation of PIP3” value was “no side effect on the PI3K pathway to PIP3”. For the same molecule, the “DAG production at the site” value in assay [2] is “prohibit DAG production”. Also, in the assay with PLC, the “PIP2 catalysis by PLC” value is reported as “neither EtOH, HELSS or propranolol interfere with the catalytic action of PLC”. Further, the “fMLP induced oxidative burst” value in the assay with human neutrophils was “inhibited the fMLP induced oxidative burst in a dose dependant manner; also recorded: much greater effect in preventing the generation of free radicals”. Moreover, in assay [3], the “decrease in rate of heart attack” value is recorded as “about 35%”. Further, the “effect in in vitro experiments” value in the assay with PLD pathway is on record as “little effect”.
With `COCCc1ccc(OCC(O)CNC(C)C)cc1` (centres unmarked) [metoprolol], the “engulfment / accumulation” value in the assay with RAW 264.7 macrophages is reported as “do not inhibit particle engulfment”. The “fMLP induced oxidative burst” value in the assay with human neutrophils is “not as effective as the PAP-1 inhibitor propranolol”.
For `CCCCCCCC(=O)OCC(CO)OC(=O)CCCCCCC` (centres unmarked) [DiC8], in the assay on RAW 264.7 macrophages (add-back of PLD pathway product), the “reversal of PLD pathway inhibitor effect on particle engulfment” value is listed as “the effect is reversed by DiC8”.
Take `[F][Al-]([F])([F])[F]` [AlF4]: the “levels of proteins after G protein stimulatory drug (FIG. 67)” value with RAW macrophages is given as “alter levels of proteins in the membranes”.
For the molecule `CCCCC/C=C\C/C=C\C/C=C\C/C=C\CCCC(=O)C(F)(F)F` [AACOCF3], the “DAG production at the site” value in assay [2] is reported as “Neither MAFP nor AACOCF3 prevent DAG production”. For the same molecule, the “fMLP induced oxidative burst” value with human neutrophils was “little effect on the oxidative burst”.
For `CC(C)(C)n1nc(-c2ccc(Cl)cc2)c2c(N)ncnc21` [PP2], the “engulfment / accumulation” value in the assay with RAW 264.7 macrophages is on record as “inhibited”.
For `C=C1[C@@H](C)[C@H]2[C@H](Cc3ccccc3)NC(=O)[C@]23[C@H](OC(C)=O)/C=C/[C@@](C)(O)C(=O)[C@@H](C)C/C=C/[C@H]3[C@@H]1O` [cytochalasin D], in the assay on PI3K pathway to PIP3, the “accumulation of PIP3” value is “inhibited”.
